Laboratory results taken from ChEMBL document CHEMBL5303573, “Mapping human microbiome drug metabolism by gut bacteria and their genes” (Nature, 2019).

Experiments:
[1] = The drug is tested on Odoribacter splanchnicus strain: fecal isolate for biotransformation. The drug concentrations were measured before and after a 12-h incubation by liquid-chromatography-coupled mass spectrometry (LC–MS); settings: 2 µM
[2] = The drug is tested on Dorea formicigenerans strain: ATCC27755 for biotransformation. The drug concentrations were measured before and after a 12-h incubation by liquid-chromatography-coupled mass spectrometry (LC–MS); settings: 2 µM
[3] = The drug is tested on Edwardsiella tarda strain: ATCC23685 for biotransformation. The drug concentrations were measured before and after a 12-h incubation by liquid-chromatography-coupled mass spectrometry (LC–MS); settings: 2 µM
[4] = The drug is tested on Bacteroides vulgatus strain: ATCC8482 for biotransformation. The drug concentrations were measured before and after a 12-h incubation by liquid-chromatography-coupled mass spectrometry (LC–MS); settings: phocaeicola vulgatus, 2 µM
[5] = parabacteroides distasonis, 12 h, 2 µM
Description: The drug is tested on Parabacteroides distasonis strain: ATCC8503 for biotransformation. The drug concentrations were measured before and after a 12-h incubation by liquid-chromatography-coupled mass spectrometry (LC–MS)

[6] = bacteroides fragilis, 12 h, 2 µM
Description: The drug is tested on Bacteroides fragilis strain: NCTC 9343 for biotransformation. The drug concentrations were measured before and after a 12-h incubation by liquid-chromatography-coupled mass spectrometry (LC–MS)

[7] = The drug is tested on Clostridium sp. strain: fecal isolate for biotransformation. The drug concentrations were measured before and after a 12-h incubation by liquid-chromatography-coupled mass spectrometry (LC–MS); settings: 2 µM
[8] = The drug is tested on Clostridium ramosum strain: DSM1402 for biotransformation. The drug concentrations were measured before and after a 12-h incubation by liquid-chromatography-coupled mass spectrometry (LC–MS); settings: thomasclavelia ramosa, 2 µM
[9] = The drug is tested on Eubacterium rectale strain: ATCC33656 for biotransformation. The drug concentrations were measured before and after a 12-h incubation by liquid-chromatography-coupled mass spectrometry (LC–MS); settings: agathobacter rectalis, 2 µM
[10] = limosilactobacillus reuteri cf48-3a, 12 h, 2 µM
Description: The drug is tested on Lactobacillus reuteri CF48-3A strain: BEI HM-102 for biotransformation. The drug concentrations were measured before and after a 12-h incubation by liquid-chromatography-coupled mass spectrometry (LC–MS)

[11] = The drug is tested on Ruminococcus lactaris strain: ATCC29176 for biotransformation. The drug concentrations were measured before and after a 12-h incubation by liquid-chromatography-coupled mass spectrometry (LC–MS); settings: 2 µM
[12] = bacteroides thetaiotaomicron, 12 h, 2 µM
Description: The drug is tested on Bacteroides thetaiotaomicron strain: 3731 for biotransformation. The drug concentrations were measured before and after a 12-h incubation by liquid-chromatography-coupled mass spectrometry (LC–MS)

[13] = bacteroides thetaiotaomicron, 12 h, 2 µM; remark: listed apart in the source
Description: The drug is tested on Bacteroides thetaiotaomicron strain: VPI-5482 for biotransformation. The drug concentrations were measured before and after a 12-h incubation by liquid-chromatography-coupled mass spectrometry (LC–MS)

[14] = The drug is tested on Blautia luti strain: DSM14534 for biotransformation. The drug concentrations were measured before and after a 12-h incubation by liquid-chromatography-coupled mass spectrometry (LC–MS); format: ADME; set-up: dose 2 uM, timepoint 0 vs 12 hours; settings: 2 µM
[15] = The drug is tested on Bacteroides caccae strain: ATCC43185 for biotransformation. The drug concentrations were measured before and after a 12-h incubation by liquid-chromatography-coupled mass spectrometry (LC–MS); settings: 2 µM
[16] = akkermansia muciniphila, 12 h, 2 µM
Description: The drug is tested on Akkermansia muciniphila strain: ATCC BAA-835 for biotransformation. The drug concentrations were measured before and after a 12-h incubation by liquid-chromatography-coupled mass spectrometry (LC–MS)

[17] = The drug is tested on Coprococcus comes strain: ATCC27758 for biotransformation. The drug concentrations were measured before and after a 12-h incubation by liquid-chromatography-coupled mass spectrometry (LC–MS); format: ADME; set-up: dose 2 uM, timepoint 0 vs 12 hours; settings: 2 µM
[18] = The drug is tested on Bacteroides fragilis strain: ATCC43859 for biotransformation. The drug concentrations were measured before and after a 12-h incubation by liquid-chromatography-coupled mass spectrometry (LC–MS); settings: 2 µM
[19] = bacteroides thetaiotaomicron, 12 h, 2 µM; remark: listed apart in the source
Description: The drug is tested on Bacteroides thetaiotaomicron strain: 7330 for biotransformation. The drug concentrations were measured before and after a 12-h incubation by liquid-chromatography-coupled mass spectrometry (LC–MS)

Structure (SMILES)	Bacterial Biotransformation [1]	Bacterial Biotransformation [2]	Bacterial Biotransformation [3]	Bacterial Biotransformation [4]	Bacterial Biotransformation [5]	Bacterial Biotransformation [6]	Bacterial Biotransformation [7]	Bacterial Biotransformation [8]	Bacterial Biotransformation [9]	Bacterial Biotransformation [10]	Bacterial Biotransformation [11]	Bacterial Biotransformation [12]	Bacterial Biotransformation [13]	Bacterial Biotransformation [14]	Bacterial Biotransformation [15]	Bacterial Biotransformation [16]	Bacterial Biotransformation [17]	Bacterial Biotransformation [18]	Bacterial Biotransformation [19]
CN(C)C(=O)C(CCN1CCC(O)(c2ccc(Cl)cc2)CC1)(c1ccccc1)c1ccccc1 [LOPERAMIDE]	Compound metabolized	Compound NOT metabolized	Compound NOT metabolized	Compound metabolized	Compound metabolized	Compound metabolized	Compound metabolized	Compound NOT metabolized	Compound NOT metabolized	Compound NOT metabolized	Compound NOT metabolized	Compound NOT metabolized	Compound NOT metabolized	Compound NOT metabolized	Compound NOT metabolized	–	–	–	–
Cc1cc(C)cc(OCC2CNC(=O)O2)c1 (stereo not drawn) [METAXALONE]	Compound NOT metabolized	Compound NOT metabolized	–	Compound metabolized	Compound metabolized	Compound metabolized	Compound metabolized	–	Compound NOT metabolized	Compound NOT metabolized	Compound NOT metabolized	Compound NOT metabolized	–	Compound NOT metabolized	Compound NOT metabolized	Compound NOT metabolized	Compound NOT metabolized	Compound metabolized	–
CC(C)(C)NC[C@H](O)COc1ccccc1C1CCCC1.CC(C)(C)NC[C@H](O)COc1ccccc1C1CCCC1.O=S(=O)(O)O [PENBUTOLOL SULFATE]	Compound NOT metabolized	Compound NOT metabolized	Compound NOT metabolized	Compound metabolized	Compound NOT metabolized	Compound NOT metabolized	Compound metabolized	–	Compound NOT metabolized	Compound NOT metabolized	Compound NOT metabolized	Compound NOT metabolized	Compound NOT metabolized	Compound NOT metabolized	Compound NOT metabolized	–	Compound NOT metabolized	–	Compound NOT metabolized
C=C[C@H]1CN2CC[C@H]1C[C@H]2[C@H](O)c1ccnc2ccc(OC)cc12.C=C[C@H]1CN2CC[C@H]1C[C@H]2[C@H](O)c1ccnc2ccc(OC)cc12.O.O.O=S(=O)(O)O [QUININE SULFATE]	Compound NOT metabolized	Compound NOT metabolized	Compound NOT metabolized	–	Compound NOT metabolized	–	–	Compound NOT metabolized	Compound NOT metabolized	Compound NOT metabolized	–	–	–	Compound NOT metabolized	Compound NOT metabolized	Compound NOT metabolized	Compound NOT metabolized	–	Compound NOT metabolized
CCC(=O)NCC[C@@H]1CCc2ccc3c(c21)CCO3 [RAMELTEON]	Compound metabolized	Compound NOT metabolized	Compound NOT metabolized	Compound metabolized	Compound metabolized	Compound metabolized	Compound NOT metabolized	Compound NOT metabolized	–	Compound NOT metabolized	Compound NOT metabolized	Compound metabolized	Compound metabolized	Compound NOT metabolized	–	–	Compound NOT metabolized	Compound metabolized	–
